21 compounds from patent US8796246B2, “9, 10-secopregnane derivative and pharmaceutical” (Nippon Shinyaku Co., Ltd., priority 2006, dated 2014) can be followed below.

Data set [1] relates to human acute myelogenous leukemia cell line HL-60. The data set is described as follows: Ability to induce differentiation of HL-60 cells (oxygen radical production after phorbol ester, WST-1). The class given is cell-based. The note with it: 72 hours incubation, then WST-1 and phorbol 12,13-didecanoate for 4 hours, absorbance at 450 nm. The source says: It is known that the human acute myelogenous leukemia cell line HL-60is differentiated into neutrophil-like cells by active vitamin D or the like. Thus, the cells after the differentiation begin to express a surface marker such as CD11and CD32and, at the same time, they produce an oxygen radical by stimulation with a phorbol ester or the like. In this test, the above-mentioned property was utilized. As an index of the ability to induce differentiation of the HL-60cells, the amount of the oxygen radical produced by stimulation with a phorbol ester was measured, and the compounds of the invention mentioned in Examples were compared with maxacalcitol with respect to the vitamin D3activity thereof. In use of commercial reagents and kits, if any, the indications attached thereto were referred to.
HL-60cells (supplied from ATCC) were seeded on a 96-well plate at 5×10^3cells/100μL/well and a test compound in two-fold dilution series from 10^−7M was added to the second to the twelfth rows (maximum concentration: the second row). The first row was used for blank. After incubation for 72 hours under a moisturized condition in the presence of 5% CO2 at 37° C. using a CO2 incubator, 10 μL of PBS containing 50 mM WST-1 (manufactured by Takara Bio) and 10 μM phorbol 12,13-didecanoate (manufactured by SIGMA) were added to each well followed by further incubation for 4 hours. Absorbance (reference wavelength: […]) at […] of the WST-1 formazane dye generated by conversion from WST-1 by oxygen radical produced from the differentiated HL-60 cells was measured by a Benchmark microplate reader (manufactured by BioRad). An absorbance meter control software MPM3 (manufactured by BioRad) was used and, from a concentration-absorbance curve, the 50%-maximal effective concentration (hereinafter, referred to as “EC50”) of each was determined by a logistic curve regression.
(Tetrazolium assays rely on reduction of a dye to a coloured formazan, in cell work by metabolically active cells.)

Data set [2] can be described thus: Metabolic rate in human liver microsome. The class given is in vitro ADME. The following applies: pooled human liver microsome 1 mg/mL protein, NADPH-regenerating system, 37° C., 2-60 minutes, HPLC. The method, then: The compounds of the invention mentioned in Examples and maxacalcitol were compared with each other with respect to the metabolic rate in human liver microsome.
As to the pooled human liver microsome (HHM-0323), those manufactured by Tissue Transformation Technologies were used. A 0.25 M potassium phosphate buffer (pH 7.4) (200 μL), 5 μL of a 250 μM solution of each compound to be tested in DMSO, 50 μL of an NADPH-regenerating system (where 20 mg of β-NADP^+, 70 mg of glucose-6-phosphate, 40 units of glucose-6-phosphate dehydrogenase and 20 mg of magnesium chloride were dissolved in 1 mL of distilled water) and 220 μL of distilled water were added to a microtube and the mixture was subjected to a preincubation for 5 minutes at 37° C. Reaction was started by an addition of 25 μL of human liver microsome (final concentration of protein: 1 mg/mL). Incubation was performed for 2, 10, 30 or 60 minutes and the reaction was stopped by an addition of 500 μL of acetonitrile. After centrifugation at 13,000 rpm for 5 minutes, each test compound in the supernatant (25 μL) was measured by HPLC under the following conditions.
Inertsil ODS-3 (4.6×150 mm; GL Science) was used as a column. With regard to the mobile phase, a solution A (acetonitrile/0.1% aqueous solution of ammonium acetate=10/90) and a solution B (acetonitrile/0.1% aqueous solution of ammonium acetate=90/10) were used under the linear gradient conditions mentioned in Tables 5 to 7. The column temperature, the flow rate and the wavelength for detection were set at 40° C., 1.0 mL/min. and UV 250 or 270 nm, respectively.
The compound mentioned in Example 38 was analyzed under the condition shown in Table 6; the compounds mentioned in Examples 55, 56, 68, 69, 72 and 73 were under the condition shown in Table 7; and the other compounds were under the condition shown in Table 5.
The compounds described in Examples 40, 43 to 48, 50, 55, 56, 58, 60, 61, 63 and 65 to 73 were analyzed under the condition of UV 250 nm; and the other compounds were under the condition of UV 270 nm.
From the HPLC test results as above, the metabolic rate of the test compound was calculated.
On the technique in general: Liver microsomes are a subcellular fraction often used to study metabolism.

For orientation: EC50 means the concentration giving half of the maximal effect. As for `CC(OC(=O)CCC(C)(C)O)C1CCC2C(=CC=C3CC(O)C(C)C(O)C3)CCCC21C` [Compound of Example 50, (1R,2α,3R,20S)-2-methyl-19-nor-20-(4-hydroxy-4-methylpentanoyloxy)-9,10-secopregna-5Z,7E-diene-1,3-diol], in data set [1], the EC50 stood at 0.043 nM. Also, the “Metabolic Rate” value in data set [2] was 45 pmol/min/mg.
On to “(1S,3R,20S)-20-(5-hydroxy-5-methylheptanoyloxy)-9,10-secopregna-5Z,7E,10(19)-triene-1,3-diol [Compound of Example 11]”, for which the EC50 in data set [1] turned out to be 2.2 nM.
In the case of `C=C1C(O)CC(=CC=C2CCCC3(C)C2CCC3C(C)OC(=O)C=CC(O)(CC)CC)CC1O` [Compound of Example 45, (1R,3R,20S)-2-methylene-19-nor-20-[(2E)-4-ethyl-4-hydroxyhex-2-enoyloxy]-9,10-secopregna-5Z,7E-diene-1,3-diol], in data set [1], a half-maximal effect (EC50) was put at 0.31 nM. Also, in data set [2], the “Metabolic Rate” value is recorded as 40 pmol/min/mg.
`CCC(O)(C=CC(=O)OC(C)C1CCC2C(=CC=C3CC(O)C(C)C(O)C3)CCCC21C)CC` [Compound of Example 65, (1R,2α,3R,20S)-2-methyl-19-nor-20-[(2E)-4-ethyl-4-hydroxyhex-2-enoyloxy]-9,10-secopregna-5Z,7E-diene-1,3-diol] displayed an EC50 in data set [1] of 0.29 nM. For the same compound, the “Metabolic Rate” value in data set [2] is 29 pmol/min/mg.
Take `C=C1C(=CC=C2CCCC3(C)C2CCC3C(C)OC(=O)CCC2(O)CCCC2)CC(O)CC1O` [Compound of Example 20, (1S,3R,20S)-20-[3-(1-hydroxycyclopentyl)propanoyloxy]-9,10-secopregna-5Z,7E,10(19)-triene-1,3-diol]: the EC50 in data set [1] is 1.4 nM. Also, the “Metabolic Rate” value in data set [2] worked out at 39 pmol/min/mg.
Consider `CC1[C@H](O)CC(=C/C=C2\CCC[C@]3(C)[C@@H]([C@H](C)OC(=O)CCCC(C)(C)O)CC[C@@H]23)C[C@H]1O` (stereo partly drawn) [Compound of Example 58, (1R,2α,3R,20S)-2-methyl-19-nor-20-(5-hydroxy-5-methylhexanoyloxy)-9,10-secopregna-5Z,7E-diene-1,3-diol], for which the concentration giving a half-maximal response (EC50) in data set [1] turned out to be 0.53 nM. For the same compound, the “Metabolic Rate” value in data set [2] came out at 29 pmol/min/mg.
On the same counts, the results for `CC(OC(=O)CCC(C)(O)C(F)(F)F)C1CCC2C(=CC=C3CC(O)C(C)C(O)C3)CCCC21C` [Compound of Example 60, (1R,2α,3R,20S)-2-methyl-19-nor-20-(5,5,5-trifluoro-4-hydroxy-4-methylpentanoyloxy)-9,10-secopregna-5Z,7E-diene-1,3-diol] are 0.053 nM and 78 pmol/min/mg.
In the case of `C=C1C(=CC=C2CCCC3(C)C2CCC3C(C)OC(=O)CC(=O)C(O)(CC)CC)CC(O)CC1O` [Compound of Example 28, (1S,3R,20S)-20-(4-ethyl-4-hydroxy-3-oxo-hexanoyloxy)-9,10-secopregna-5Z,7E,10(19)-triene-1,3-diol], the EC50 in data set [1] came to 1.7 nM.
Take `C=C1C(=CC=C2CCCC3(C)C2CCC3C(C)OC(=O)CCCC(C)(O)C(F)(F)F)CC(O)CC1O` [Compound of Example 37, (1S,3R,20S)-20-(6,6,6-trifluoro-5-hydroxy-5-methylhexanoyloxy)-9,10-secopregna-5Z,7E,10(19)-triene-1,3-diol]: in data set [1], the response was half-maximal at 1.1 nM (EC50). For the same compound, in data set [2], the “Metabolic Rate” value worked out at 36 pmol/min/mg.
On the same counts, the results for `CCC(O)(CC)CCC(=O)OC(C)C1CCC2C(=CC=C3CC(O)C(C)C(O)C3)CCCC21C` [Compound of Example 67, (1R,2α,3R,20S) -2-methyl-19-nor-20-[4-ethyl-4-hydroxyhexanoyloxy]-9,10-secopregna-5Z,7E-diene-1,3-diol] are 0.15 nM and 38 pmol/min/mg.
On the same counts, the results for `C=C1C(=CC=C2CCCC3(C)C2CCC3C(C)OC(=O)CCC(O)(CC)CC)CC(O)CC1O` [Compound of Example 13, (1S,3R,20S)-20-(4-ethyl-4-hydroxyhexanoyloxy)-9,10-secopregna-5Z,7E,10(19)-triene-1,3-diol] are 0.53 nM and 38 pmol/min/mg.
On the same counts, the results for `C=C1C(=CC=C2CCCC3(C)C2CCC3C(C)OC(=O)CCCC(O)(CC)CC)CC(O)CC1O` [Compound of Example 34, (1S,3R,20S)-20-(5-hydroxy-5-ethylheptanoyloxy)-9,10-secopregna-5Z,7E,10(19)-triene-1,3-diol] are 4.2 nM and 36 pmol/min/mg.
For `CC(OC(=O)CCC(C)(O)C(F)(F)F)C1CCC2C(=CC=C3CC(O)CC(O)C3)CCCC21C` [Compound of Example 72, (1R,3R,20S)-19-nor-20-[(4S)-5,5,5-trifluoro-4-hydroxy-4-methylpentanoyloxy]-9,10-secopregna-5Z,7E-diene-1,3-diol], in data set [1], the midpoint of the response, the EC50, lay at 0.17 nM. Besides, the “Metabolic Rate” value in data set [2] worked out at 111 pmol/min/mg.
For the compound `C=C1C(=CC=C2CCCC3(C)C2CCC3C(C)OC(=O)CC(=O)C(C)(C)O)CC(O)CC1O` [Compound of Example 27, (1S,3R,20S)-20-(4-hydroxy-4-methyl-3-oxo-pentanoyloxy)-9,10-secopregna-5Z,7E,10(19)-triene-1,3-diol], in data set [1], the EC50 worked out at 4.1 nM.
`CC(OC(=O)CCC(C)(C)O)C1CCC2C(=CC=C3CC(O)CC(O)C3)CCCC21C` [Compound of Example 40, (1R,3R,20S)-19-nor-20-(4-hydroxy-4-methylpentanoyloxy)-9,10-secopregna-5Z,7E-diene-1,3-diol] came in with an EC50 in data set [1] of 1.6 nM. In addition, in data set [2], the “Metabolic Rate” value was 65 pmol/min/mg.
Consider `C=C1C(=CC=C2CCCC3(C)C2CCC3C(C)OC(=O)CN(C)CC(C)(C)O)CC(O)CC1O` [Compound of Example 19, (1S,3R,20S)-20-[N-(2-hydroxy-2-methylpropyl)-N-methyl-2-aminoacetyloxy]-9,10-secopregna-5Z,7E,10(19)-triene-1,3-diol], for which the EC50 in data set [1] was found to be 2.4 nM.
Same read-out and setting: in the case of `C=C1C(=CC=C2CCCC3(C)C2CCC3C(C)OC(=O)CC(O)(CC)CC)CC(O)CC1O` [Compound of Example 12, (1S,3R,20S)-20-(3-ethyl-3-hydroxypentanoyloxy)-9,10-secopregna-5Z,7E,10(19)-triene-1,3-diol] it was 1.5 nM; in that of `C=C1C(=CC=C2CCCC3(C)C2CCC3C(C)OC(=O)CC(O)(C(F)(F)F)C(F)(F)F)CC(O)CC1O` [Compound of Example 7, (1S,3R,20S)-20-[4,4,4-trifluoro-3-hydroxy-3-(trifluoromethyl)butanoyloxy]-9,10-secopregna-5Z,7E,10(19)-triene-1,3-diol], 0.38 nM.
`C=C1C(O)CC(=CC=C2CCCC3(C)C2CCC3C(C)OC(=O)CCCC(C)(C)O)CC1O` [Compound of Example 57, (1R,3R,20S)-2-methylene-19-nor-20-(5-hydroxy-5-methylhexanoyloxy)-9,10-secopregna-5Z,7E-diene-1,3-diol] gave an EC50 in data set [1] of 0.53 nM.
Still for that read-out and setting: next, `C=C1C(=CC=C2CCCC3(C)C2CCC3C(C)OC(=O)CC(C)(O)C(F)(F)F)CC(O)CC1O` [Compound of Example 4, (1S,3R,20S)-20-(4,4,4-trifluoro-3-hydroxy-3-methylbutanoyloxy)-9,10-secopregna-5Z,7E,10(19)-triene-1,3-diol]: 0.31 nM.
Still for that read-out and setting: next, `C=C1C(=CC=C2CCCC3(C)C2CCC3C(C)OC(=O)CC(O)C(C)C)CC(O)CC1O` [Compound of Example 5, (1S,3R,20S)-20-(3-hydroxy-4-methylpentanoyloxy)-9,10-secopregna-5Z,7E,10(19)-triene-1,3-diol]: 0.86 nM.
